Test results: patent US20050075398A1, “Neuroprotectin D1 protects against cellular apoptosis, stroke damage, alzheimer's disease and retinal diseases” (priority 2003, published 2005)

Tests used:
[1] = test system: NF-κB-DNA binding activity; test: EMSA of NF-κB in hippocampus after MCA-O; type: in vivo, mouse; conditions: ipsilateral hippocampus; 1 h MCA-O, 2 h reperfusion; infused into third ventricle 3 h at 0.25 μl/h (NPD1 0.16 μg/ml)
Description: (§1) Electrophoretic mobility-shift assay (EMSA) of human AP1, HIF-1α, NF-κBp50/p65, and STAT-1α. Nuclear protein extracts (NPXTs) were prepared from one to three 3.5 cm-diameter wells of HN cells and quantitated. NPXTs (5 μg) derived from HN cells were incubated with[γ-^32P]-ATP (˜3000 Ci/mmol)-end-labeled AP1, HIF-1α, NF-κκBp50/p65, or STAT-1α consensus and mutant oligonucleotides in 5-μl volumes, reacted for 30 min on ice, analyzed on 5% or 10% acrylamide/90 mM Tris-borate pH 8.4, 1 mM EDTA (TBE) gels, dried onto 2-mm Whatman filter paper at 80° C. for 2 h, and phosphorimaged using a Typhoon Variable Mode Imager (Amersham Pharmacia Biotech, Piscataway, N.J. ).
FIGS. 7A, 7B, and 7C show mouse hippocampus after 1 h MCA-O was followed by 2 h reperfusion, where either vehicle, DHA, or 10,17S-docosatriene (NPD1) (0.16 μg/ml) was infused into the third ventricle for 3 h at 0.25 μl/h. […] NF-κB was increased over two fold in the ipsilateral hippocampus after MCA-O, and the infusion of either DHA or 10,17S-docosatriene (NPD1) inhibited ischemia-reperfusion-induced NF-κB activation by 28% and 48%, respectively (FIG. 7A).

STAT-1 = test: EMSA of STAT-1 in IL-1β-exposed human neural progenitor cells; type: cell-based; conditions: HN progenitor cells
Description: Human neural (HN) progenitor cells in primary culture. HN cells were grown to ˜70% confluence (˜50,000 cells per 3.5-cm diameter well) in 6-well COSTAR plates at 37° C., 5% CO2/20% O2/75% N2 in humidified air at 1 atm (normoxic conditions) in NPMM medium (Clonetics CC-4241) supplemented with hFGF, NSF-1, hEGF, GA-1000, as described by the manufacturer (Clonetics, Walkersville, Md.). HN cells tested negative for HIV-1, hepatitis B and C, mycoplasma, bacteria, yeast, and fungi, and positive for the glial and neuronal markers GFAP, MAP2, and β-tubulin III (Clonetics). […]
as §1

COX-1 mRNA = COX-1 mRNA in human neural progenitor cells; type: cell-based
Description: Human neural (HN) progenitor cells in primary culture. HN cells were grown to ˜70% confluence (˜50,000 cells per 3.5-cm diameter well) in 6-well COSTAR plates at 37° C., 5% CO2/20% O2/75% N2 in humidified air at 1 atm (normoxic conditions) in NPMM medium (Clonetics CC-4241) supplemented with hFGF, NSF-1, hEGF, GA-1000, as described by the manufacturer (Clonetics, Walkersville, Md.). HN cells tested negative for HIV-1, hepatitis B and C, mycoplasma, bacteria, yeast, and fungi, and positive for the glial and neuronal markers GFAP, MAP2, and β-tubulin III (Clonetics). After two weeks of development, HN cells were exposed to human recombinant interleukin 1-beta (IL-1β) (10 ng/ml) for 3 h in the presence or absence of 0.03, 0.3, 3.0, 30, and 300 nM 10,17S-docosatriene (NPD1), DHA, or PBS pH 7.4 (control). RNA and protein were quickly isolated using Trizol Reagent (Invitrogen, Carlsbad, Calif.) and stored at −81° C. within minutes of isolation.
COX-2 RNA abundance in hippocampus and HN cells. Abundance of human-specific COX-1 and COX-2 RNA message was assayed using RT-PCR as described in Bazan, N. G., and Lukiw, W. J. (2002) J. Biol. Chem. 277, 30359-30367.

Bfl-1(A1) protein = test: Western analysis of Bfl-1(A1) in HN cells; type: cell-based, human; conditions: 50 nM, p<0.05
Description: Western Analysis. Total protein was extracted, and 25 μg of protein was analyzed by Western blots using human Bcl-2, Bfl-1 (A1) and actin antibodies. […] Human specific anti-Bfl-1(A1)[Cat. No. sc-8351] was obtained from Santa Cruz Biotechnology (Santa Cruz, Calif.). For Western analysis, signal-intensity data were gathered by phosphorimaging onto molecular imaging screens (FUJIFILM) for 3-36 h using a Typhoon Molecular Imager system (Amersham Biosciences) as described in Bazan and Lukiw, 2002.
To confirm the above changes in Bcl-2 and Bfl-1(A1), Western analysis was performed using anti-Bcl-2, anti-Bfl-1(A1), and anti-actin primary antibodies (B3170 Sigma Life Science, sc-8351 Santa Cruz, and A2103 Sigma, respectively). The results of the Western analysis confirm up-regulation of Bcl-2 and Bfl-1(A1) anti-apoptotic proteins over actin controls in DHA- and NPD1-treated cells.

ARPE-19 cells = test: ELISA detection of mono- and oligonucleosomes; type: cell-based, human; conditions: 50 nM
Description: Assessment of apoptosis by mono- and oligonucleosome analysis: Cells were homogenized in a lysis buffer and 20-μl aliquots were applied on streptavidin-coated 96-well plates. Cells were incubated for 2 h with 80 μl incubation buffer containing the monoclonal antibodies directed against DNA and histones for detection of mono- and oligonucleosomes (Roche Diagnostics Corporation Cat. # 1774425). After the unreacted antibodies were washed away, the immune complexes of DNA-histone-antibodies remain bound to the streptavidin-coated plates, where detection was attained by horseradish-peroxidase reaction.
DNA fragmentation was also detected by ELISA detection of mono- and oligonucleosomes in ARPE cells (Roche Diagnostics Corporation Cat. # 1774425). Cells were homogenized in a lysis buffer, and 20-μl aliquots were applied on streptavidin-coated 96-well plates. Cells were incubated for 2 h with 80 μl incubation buffer containing the monoclonal antibodies directed against DNA and histones for detection of mono- and oligonucleosomes. After the unreacted antibodies were washed away, the immune complexes of DNA-histone-antibodies remained bound to the streptavidin-coated plates, where detection is obtained through horseradish-peroxidase reaction. Quantitative analysis was performed in a Spectramax-250 (Molecular Devices) spectrophotometer.

caspase-3 = test: Caspase-3 cleavage analysis by Western blot (PARP); type: cell-based, human; conditions: NPD1 50 nM added with TNFα/H2O2, 6-8 h; TNFα/H2O2 alone 80.8%
Description: Caspase-3 cleavage analysis: Caspase-3 cleavage was evaluated by Western-blot analysis after using PARP as substrate. Briefly, 20 μg equivalent of each cell extract was electrophoresed on an 8-16% gel (Promega, Madison, Wis.) for 2 h at 125 volts. The proteins were transferred onto nitrocellulose membranes as before, and probed with PARP antibody (Santa Cruz Biotechnology, Santa Cruz, Calif.). The degradation of PARP was evaluated using ECL kit.
Effector caspase-3, downstream of pro- and anti-apoptotic proteins, is activated as a consequence of mitochondrial cytochrome c release into the cytoplasm and activation of the apoptosome. ARPE-19 cells were serum-starved for 1 h prior to a 6- to 8-h treatment with TNF-α (10 ng)+H2O2 (either 400 or 800 μM as indicated) in the presence or absence of NPD1 (50 nM). In FIG. 15A, caspase-3 cleavage was detected by Western-blot analysis using PARP (Santa Cruz Biotech.) as antibody. […] In ARPE-19 cells, caspase-3-induced cleavage using endogenous substrate occurred when TNFα/H2O2-triggered oxidative stress was present, as indicated by increased PARP accumulation (an 80.8% increase compared to the control; FIG. 15A).

Question: With CC/C=C\C[C@H](O)\C=C/C=C/C=C/[C@H](O)C/C=C\C/C=C\CCC(=O)O [NPD1, 10,17S-docosatriene] as the compound, how does the “inhibition of ischemia-reperfusion-induced NF-κB activation” value [1] read?
Answer: The value was 48%.

Question: What about the “effect on STAT-1” value (STAT-1) of the same compound?
Answer: The value was “unaffected”.

Question: And the “effect on basal level of COX-1 mRNA” value (COX-1 mRNA)?
Answer: The value was “seemed to decrease”.

Question: What about the “Bfl-1(A1) protein increase over controls, normalized with actin” value (Bfl-1(A1) protein) of the same compound?
Answer: Its value is 5.4 fold.

Question: What about the “effect on TNFα/H2O2-induced accumulation of mono- and oligonucleosomes” value (ARPE-19 cells) of the same compound?
Answer: The value was “inhibited”.

Question: What about the “PARP accumulation (caspase-3 activation), increase compared to the control” value (caspase-3) of the same compound?
Answer: Its value is 18.3%.
